Results published in patent US10744127B2, “MDR-reversing 8-hydroxy-quinoline derivatives” (MAGYAR TUDOMÁNYOS AKADÉMIA TERMÉSZETTUDOMÁNYI KUTATÓKÖZPONT, priority 2016, dated 2020).
Like-named read-outs stand apart in the source and are kept apart here.

Key:
MES-SA cell line = assay: Cytotoxicity, PrestoBlue cell viability assay, parental MES-SA; assay type: cell-based; settings: Homo sapiens; parental MES-SA cell line (Table 2a)
Method: (§1) The human uterine sarcoma cell line MES-SA and its doxorubicin resistant counterpart MES-SA/Dx5 were obtained from ATCC (MES-SA: No. CRL-1976™, MES-SA-Dx5: No. CRL-1977™). MES-SA/Dx5 cells express high levels of P-gp, and therefore are multidrug resistant (MDR). Cells were cultured in DMEM supplemented with 10% FBS, 5 mmol/L glutamine and 50 unit/mL penicillin and streptomycin (Life Technologies).
(§2) Cell survival was measured by the PrestoBlue® Cell Viability Reagent (Life Technologies, USA). Cells were seeded in 100 μl medium at a density of 5000 cells/well in 96-well plates; the serially diluted drug was added the following day. Cells were then incubated for 72 hours at 37° C. in 5% CO2; the drug containing medium was removed, and the PrestoBlue® reagent was added according to the manufacturer's instructions. Fluorescence of the cells was measured by a Perkin Elmer EnSpire multimode plate reader or Perkin Elmer Victor X3 microplate reader. Data were background corrected and normalized to untreated cells. Curves were fitted with the help of Prism software using the sigmoidal dose-response model. Curve fit statistics were used to determine IC50 values. Differences between the IC50 values of the respective cell lines were analyzed by two-sided […] unpaired Student's t test and results were considered statistically significant at a P value of <0.05 (*) or 0.01 (**).

[1] = test system: MDCK II and MDCK II B1 cell lines; assay: Selective toxicity towards MDCK II and MDCK II B1 cell lines; assay type: cell-based, canine; settings: MDCK II versus MDCK II B1
Method: as §2
Data on selective toxicity (expressed as Selectivity Ratio, SR) in two MDR models engineered by retroviral transfection of P-glycoprotein (A431/A431-B1 and MDCK II/MDCK II B1 cell lines) are presented in Table 3 and Table 4.
A431 is a human epidermoid carcinoma cell line. Its derivative, the A431-B1 cell line expresses P-gp due to retroviral transfection of the mdr1 gene Türk, D. et al (Türk, D. et al., 2009). MDCK II is a canine kidney cell line. MDCK II B1 was created by inserting the mdr1 gene with transposons [Pape V F S et al. 2015] Both cell express P-gp stably, and show a stable MDR phenotype. Culture conditions were identical as in the case of MES-SA cells.

[2] = test system: MES-SA and multidrug-resistant MES-SA/Dx5 cell line; assay: Selective toxicity (ratio of IC50 in MES-SA to IC50 in MES-SA/Dx5) and activity index; assay type: cell-based, human
Description: Compounds having P-gp potentiated MDR-selective activity can be characterized by their inhibitory concentration (IC) with regard to a specific cancer cell line. Usually the IC value is given at a certain percentage ratio of non-inhibited molecules or surviving cells. For example an IC20 value of a compound on a cell line means that at this inhibitory concentration of the compound 80% of the cells are killed whereas 20% of the cells are still viable. A further characteristic of MDR-selective drugs is the selectivity ratio (SR), which is the ratio of the IC value measured in a non-multidrug resistant cell line to (i.e. divided by) the IC value measured in the corresponding transformed, multidrug-resistant cell line. The inverse value, the resistance ratio (RR) is calculated as the ratio of a compound's IC value against a multidrug resistant cell line divided by the parallel IC value of the same compound against a control non-multidrug resistant cell line. The Activity Index (AI) is calculated here as the ratio of the compound's selectivity ratio (SR) and the compound's IC50 value against the resistant cell. The AI reflects the level of simultaneous toxicity and selectivity towards multidrug-resistant cancer cells.
as §1, §2
Selectivity towards multidrug-resistant cells is expressed as the ratio of the IC50 value measured in the parental MES-SA and multidrug-resistant MES-SA/Dx5 cell line (Selectivity Ratio, SR).
A novel characteristic of the compounds presented in this invention is that they exert their selective cytotoxicity at low IC50 values. Simultaneous toxicity and selectivity towards multidrug-resistant cancer cells is reflected by the Activity Index (AI) of the compounds, which is the ratio of the selectivity ratio (SR) and the IC50 value on the resistant cell line.

[3] = test system: P-gp-expressing MES-SA/Dx5 cells; assay: P-gp switch assay (Calcein AM); assay type: cell-based, human; settings: MES-SA/Dx5, single dose at IC20 (killing 80% of the cells), surviving population at 80% confluence, Calcein AM
Method: One million P-gp-expressing MES-SA/Dx5 cells were plated in a T25 cell culture flask. After 24 hours the compound of interest was added directly to the cells at a concentration corresponding to the IC20 value (killing 80% of the cells). After 5 days the culture media was removed, the cells were washed with PBS and the culture medium was exchanged. Cells were monitored daily and the recovery was recorded. The medium was changed every 5 days until the confluence of the cells reached 80%. At 80% confluence the cells were removed by gentle trypsinization, counted by an automated cell counter and stained with Calcein AM, a cellular dye able to detect the function of P-gp (Homolya 1993). P-gp-positivity was evaluated based on the ability of P-gp-expressing cells to extrude Calcein AM.

[4] = test system: primary cells from doxorubicin resistant brca1-/-/p53-/- spontaneous mouse mammary carcinoma; assay: Calcein assay of functional P-gp in primary tumor cells from doxorubicin resistant mammary carcinoma; assay type: cell-based; settings: single treatment, calcein assay (FIG. 4D)
Description: Tumor pieces derived from Brca1−/−;p53−/− FVB mouse mammary tumors were transplanted orthotopically into the mammary fat pad of wild type FVB mice.
As described by Rottenberg et al. (Pajic et al. 2009), treatment with several cycles of the maximum tolerable dose of doxorubicin invariably lead to drug resistance mediated by the moderate upregulation of Mdr1a and/or Mdr1b (FIG. 4A). Primary cultures from resistant tumors were established. In just 10 passages the culture was depleted of stromal components (FIG. 4B).
Functional expression of P-gp in the primary cells was evaluated by the calcein assay.

MES-SA/Dx5 cell line = assay: Cytotoxicity, PrestoBlue cell viability assay, MES-SA/Dx5; assay type: cell-based; settings: Homo sapiens
Method: as §1, §2

MES-SA/Dx5 cells = assay: Sensitivity of MES-SA/Dx5 cells to doxorubicin after a single treatment; assay type: cell-based, human; settings: after treatment with a single dose (FIG. 3)
Description: The above treatment with compounds of the general Formula I results in a new, stable phenotype, with the complete resensitization of cells to conventional chemotherapy consisting of P-glycoprotein substrates such as doxorubicin (FIG. 3).
Curves show the sensitivity of MES-SA/Dx5 cells (P-gp overexpressing cell line established from MES-SA) to doxorubicin before and after treatment with a single dose of a state of the art compound (NSC693872) and two compounds relating to this invention (Example compounds No. 9 and No. 17). The sensitivity of MES-SA cells is shown as a reference (P-gp-negative parental cell line). […] (Values indicate the IC50 values (μM) derived from the cytotoxicity curves).

[5] = test system: MES-SA and MES-SA/Dx5 cells; assay: Selective toxicity in the presence of the P-gp inhibitor tariquidar; assay type: cell-based, human; settings: selectivity ratio in the presence of tariquidar (1 μM)
Method: In the presence of tariquidar (an inhibitor of P-gp function), the toxicity of the compounds selectively diminishes in multidrug-resistant MES-SA/Dx5 cells, while the toxicity is unchanged against parental MESSA cells, which is reflected by a decrease in the selectivity ratio (SR (TQ)).
To investigate the contribution of P-glycoprotein to the cytotoxic effect of a compound, cell survival was measured in the presence of the P-glycoprotein inhibitor tariquidar (1 μM). Tariquidar (CAS 206873-63-4) can be obtained e.g. from Selleck, Houston, USA.

Compound: COc1ccc(CNCc2cc(Br)c3cccnc3c2O)c(OC)c1 [Example 9, 5-Bromo-7-(((2,4-dimethoxybenzyl)amino)methyl)quinolin-8-ol]
- melting point: 146 to 148 °C
- IC50 (MES-SA cell line): 2260 nM
- Selectivity Ratio (SR) (MDCK II/MDCK II B1) [1]: 16.8
- SR ([2]; MES-SA / MES-SA/Dx5 (Table 2b)): 20.4
- SR ([2]; MES-SA / MES-SA/Dx5, without tariquidar (Table 5)): 20.4
- Fraction of P-gp-negative cells (P3) in the population [3]: 99.0%
- Fraction of P-gp-positive cells (P4) in the population [3]: 1.0%
- P-gp efflux capacity of primary tumor cells [4]: efflux capacity of the cells could be eradicated by a single treatment
- IC50 (MES-SA/Dx5 cell line; MES-SA/Dx5 (Table 2b), read-out: IC50 (μM) Dx5): 0.12 µM
- IC50 (MES-SA/Dx5 cell line; Mes-sa/Dx5 cell line, PrestoBlue assay, 72 hours (Table 1), read-out: IC50): 0.118 µM
- IC50 (MES-SA/Dx5 cell line; multidrug-resistant MES-SA/Dx5 cell line (Table 2a), read-out: IC50 (nM) in MES-SA/Dx5 cell line): 0.118 µM
- Resensitization of MES-SA/Dx5 cells to doxorubicin (MES-SA/Dx5 cells): sufficient to resensitize MES-SA/Dx5 cells to doxorubicin
- SR (TQ) [5]: 1.8
